Results taken from patent US20170326100A1, “COMPOSITION FOR ACTIVATING LONGEVITY GENE” (AMOREPACIFIC CORPORATION, priority 2014, published 2017).
Entries after “also recorded” stand apart in the source; their conditions may differ.

Columns and labels:
XPD mRNA [1] = experiment: XPD activation: relative expression of XPD mRNA in keratinocytes (TaqMan RT-PCR); type: cell-based, human; settings: keratinocytes (NHK), 10 ppm, 37° C. 24 hours, control = 1.0
Method: (§1) Experiment was conducted using normal human keratinocytes (NHK) and normal human fibroblasts (NHF) to investigate the effect of a methylated catechin. Specifically, 2×10^5 NHFs (normal human fibroblasts) purchased from Lonza (Allendale, N.J., USA) were cultured on a 60-mm dish at 37° C. for 24 hours using DMEM. The medium was discarded and the cells were transferred to a new tissue culture flask. Also, NHEKs (normal human epidermal keratinocytes, corresponding to NHK) purchased from Lonza (Allendale, N.J., USA) were cultured using a keratinocyte growth medium (KGM-GOLD, Lonza, Allendale, N.J., USA). The cells were detached with 0.025% trypsin and transferred to a new tissue culture flask after subculturing.
(§2) Specifically, after treating the keratinocytes (NHK) and the fibroblasts (NHF) with each of retinol, green tea EGCG and green tea EGCG″3Me at 10 ppm, followed by incubation at 37° C. for 24 hours, total RNA was isolated from the cells and the relative expression of XPD mRNA was compared.
(§3) The total RNA was isolated using TRIzol™ (Invitrogen, Carlsbad, Calif., USA) according to the manufacturer's protocol. RNA concentration was measured spectrophotometrically and RNA integrity was measured using BioAnalyzer 2100 (Agilent Technologies, Santa Clara, Calif., USA). 4 μg of RNA was reverse transcribed to cDNA using SuperScript®III reverse transcriptase (Invitrogen, Carlsbad, Calif., USA). The cDNA was stored at −70° C. The expression level of the target gene was measured by quantitative real-time TaqMan RT-PCR (7500Fast, Applied Biosystems, Foster City, Calif., USA). The cycle condition was 10 minutes at 95° C., 50 cycles of […] at 95° C. and 1 minute at 60° C.

Sirt-1 mRNA [2] = experiment: Sirt-1 activation: relative expression of Sirt-1 mRNA in fibroblasts (TaqMan RT-PCR); type: cell-based, human; settings: fibroblasts (NHF), 10 ppm, 24 hours, control = 1.0
Method: as §1
(§4) Specifically, after treating the keratinocytes (NHK) and the fibroblasts (NHF) with each of retinol, green tea EGCG and green tea EGCG″3Me at 10 ppm, followed by incubation at 37° C. for 24 hours, total RNA was isolated from the cells and the relative expression of Sirt-1 mRNA was compared.
as §3

Fox03 mRNA [3] = experiment: FoxO3 activation: relative expression of Fox03 mRNA in keratinocytes (TaqMan RT-PCR); type: cell-based, human; settings: keratinocytes (NHK), 10 ppm, 24 hours, control = 1.0
Method: as §1
(§5) Specifically, after treating the keratinocytes (NHK) and the fibroblasts (NHF) with each of retinol, green tea EGCG and green tea EGCG″3Me at 10 ppm, followed by incubation at 37° C. for 24 hours, total RNA was isolated from the cells and the relative expression of Fox03 mRNA was compared.
as §3

Klotho mRNA [4] = experiment: Klotho activation: relative expression of Klotho mRNA in fibroblasts (TaqMan RT-PCR); type: cell-based, human; settings: fibroblasts (NHF), 24 hours, control = 1.0
Method: as §1
as §2, with “of retinol (10 ppm),” for “of retinol,”, “EGCG (1 and 10 ppm)” for “EGCG”, “EGCG″3Me (1 and” for “EGCG″3Me at”, “10 ppm),” for “10 ppm,”, “of Klotho” for “of XPD”
as §3

ERCC8 mRNA [5] = experiment: ERCC8 activation: relative expression of ERCC8 mRNA in keratinocytes (TaqMan RT-PCR); type: cell-based, human; settings: keratinocytes (NHK), 10 ppm, 24 hours, control = 1.0
Method: as §1
(§6) Specifically, after treating the keratinocytes (NHK) and the fibroblasts (NHF) with each of retinol, green tea EGCG and green tea EGCG″3Me at 10 ppm, followed by incubation at 37° C. for 24 hours, total RNA was isolated from the cells and the relative expression of ERCC8 mRNA was compared.
as §3

ERCC8 mRNA [6] = experiment: ERCC8 activation: relative expression of ERCC8 mRNA in fibroblasts (TaqMan RT-PCR); type: cell-based, human; settings: fibroblasts (NHF), 10 ppm, 24 hours, control = 1.0
Method: as §1, §6, §3

XPD mRNA [7] = experiment: XPD activation: relative expression of XPD mRNA in fibroblasts (TaqMan RT-PCR); type: cell-based, human; settings: fibroblasts (NHF), 10 ppm, 37° C. 24 hours, control = 1.0
Method: as §1, §2, §3

Klotho mRNA [8] = experiment: Klotho activation: relative expression of Klotho mRNA in keratinocytes (TaqMan RT-PCR); type: cell-based, human; settings: keratinocytes (NHK), 24 hours, control = 1.0
Method: as §1
as §2, with “of retinol (10 ppm),” for “of retinol,”, “EGCG (1 and 10 ppm)” for “EGCG”, “EGCG″3Me (1 and” for “EGCG″3Me at”, “10 ppm),” for “10 ppm,”, “of Klotho” for “of XPD”
as §3

Fox03 mRNA [9] = experiment: FoxO3 activation: relative expression of Fox03 mRNA in fibroblasts (TaqMan RT-PCR); type: cell-based, human; settings: fibroblasts (NHF), 10 ppm, 24 hours, control = 1.0
Method: as §1, §5, §3

Sirt-1 mRNA [10] = experiment: Sirt-1 activation: relative expression of Sirt-1 mRNA in keratinocytes (TaqMan RT-PCR); type: cell-based, human; settings: keratinocytes (NHK), 10 ppm, 24 hours, control = 1.0
Method: as §1, §4, §3

[11] = tested on: normal human epidermal keratinocytes (NHEKs); experiment: Evaluation of cellular differentiation of keratinocytes; type: cell-based; settings: various concentrations, 48 hours, FIG. 1
Method: In order to investigate the effect of the methylated catechin on the differentiation of keratinocytes, normal human epidermal keratinocytes (NHEKs) were treated with EGCG″3Me and EGCG at various concentrations for 48 hours.

Row | Compound | relative expression of XPD mRNA (XPD mRNA [1]) | relative expression of Sirt-1 mRNA (Sirt-1 mRNA [2]) | relative expression of Fox03 mRNA (Fox03 mRNA [3]) | relative expression of Klotho mRNA (Klotho mRNA [4]; 1 ppm) | relative expression of Klotho mRNA (Klotho mRNA [4]; 10 ppm) | relative expression of ERCC8 mRNA (ERCC8 mRNA [5]) | relative expression of ERCC8 mRNA (ERCC8 mRNA [6]) | relative expression of XPD mRNA (XPD mRNA [7]) | relative expression of Klotho mRNA (Klotho mRNA [8]; 1 ppm) | relative expression of Klotho mRNA (Klotho mRNA [8]; 10 ppm) | relative expression of Fox03 mRNA (Fox03 mRNA [9]) | relative expression of Sirt-1 mRNA (Sirt-1 mRNA [10]) | differentiation of keratinocytes [11]
1 | O=C(O[C@@H]1Cc2c(O)cc(O)cc2O[C@@H]1c1cc(O)c(O)c(O)c1)c1cc(O)c(O)c(O)c1 [Green tea EGCG, epigallocatechin gallate] | 9.2 | 2.0 | 1.4 | 1.2 | 1.8 | 1.9 | 2.3 | 2.8 | 2.5 | 10.2 | 2.1 | 8.2 | –
2 | CC1=C(/C=C/C(C)=C/C=C/C(C)=C/CO)C(C)(C)CCC1 [Retinol] | 10.1 | 1.9 | 1.1 | – | 2.2 | 1.2 | 1.0 | 2.4 | – | 9.8 | 1.4 | 7.9 | –
3 | epigallocatechin-3-O-(3-O-methyl)gallate [Green tea EGCG3″Me] | 21.4 | 4.3 | 3.2 | 1.7 | 2.1 | 4.3 | 5.1 | 6.9 | 4.2 | 10.5 | 5.3 | 17.1 | promoted the differentiation of the keratinocytes in a concentration-dependent manner; also recorded: superior differentiation of the keratinocytes at low concentration as compared to EGCG
